According to patent US20230286973A1, “PROTEIN SECRETION INHIBITORS” (KEZAR LIFE SCIENCES, priority 2020, published 2023):

How the values were obtained:
[1] = test system: HER3-ss+4aa/Gaussia Luciferase; assay: Dox-Induced Her3-ss-Gluc Assay; type: cell-based; settings: 24 hr Dox induction; 293FRT/TO cells; mean; read-out: 24 hr Dox Inducible Her3(ss + 4)Gluc 293FRT/TO: Mean IC50
How it was run: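 Reporter line: Flp-In 293 T-REx, T-REx-regulated HER3-ss+4aa fused to Gaussia luciferase. Compound co-added with doxycycline after overnight plating, 37° C., 5% CO2.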

[2] = Liver Microsome Stability Assay (human); settings: human liver microsomes, with NADPH, 1.0 uM compound
Procedure: (§1) Stability of a compound was assessed in the presence of liver microsomes from various sources—mouse, rat, monkey and human liver microsomes. 1.0 uM compound, 0.4% DMSO in 0.1 M Potassium Phosphate with 1.0 mg/mL liver microsomes, were incubated at 37° C. with or without 1 mM NADPH. The samples were quenched at 0, and 30 minutes.

[3] = test system: PD1-ss+10aa/Gaussia Luciferase; assay: Dox-Induced PD1-ss-Gluc Assay; type: cell-based; settings: 24 hr Dox induction; 293FRT/TO cells; mean; read-out: 24 hr Dox Inducible PD1ssGluc 293FRT/TO: Mean IC50
How it was run: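 Flp-In 293 T-REx, stable line; Tet-regulated PD1-ss+10aa fused to Gaussia luciferase; plated day prior; cpd + doxycycline in DMSO/media; 37 °C, 5% CO2.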

[4] = test system: TNFα-FL/Gaussia Luciferase; assay: Dox Induced TNFα-FL-Gluc Assay; type: cell-based; settings: for IC50: 24 hr Dox induction, 293FRT/TO cells, mean, read-out: 24 hr Dox Inducible TNFaFLGluc 293FRT/TO: Mean IC50; for 24 hr Dox Inducible TNFaFLGluc 293FRT/TO: TNF/PD1: ratio of TNFaFLGluc IC50 to PD1ssGluc IC50, '<=>' given where both are I.A.
How it was run: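 Doxycycline-inducible Gaussia luciferase-tagged full-length TNFα (1-233) was expressed in stable Flp-In 293 T-REx cells. Compounds were co-added with doxycycline and incubated at 37 °C, 5% CO2.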

[5] = Liver Microsome Stability Assay (monkey); settings: monkey liver microsomes, with NADPH, 1.0 uM compound
Procedure: as §1

[6] = Liver Microsome Stability Assay (mouse); settings: mouse liver microsomes, with NADPH, 1.0 uM compound
Procedure: as §1

[7] = Liver Microsome Stability Assay (rat); settings: rat liver microsomes, with NADPH, 1.0 uM compound
Procedure: as §1

[8] = test system: multiple myeloma cell line U266B1; assay: U266 Cell Viability Assay; type: cell-based, human; settings: Homo sapiens, U-266, 48 h, U266B1 cells, Celltiter-Glo
How it was run: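 Viability is measured as luciferase signal from CellTiter-Glo following a 48-hour incubation with compound at 37° C. under 5% CO2. Where structures lack drawn stereochemistry, values refer to stereoisomer mixtures.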

[9] = test system: multiple myeloma cell line NCI-H929; assay: H929 Cell Viability Assay; type: cell-based, human; settings: Homo sapiens, NCI-H929, 48 h, NCI-H929 cells, Celltiter-Glo
How it was run: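 Viability is scored by CellTiter-Glo luminescence following a 48-hour treatment at 37° C. Data for structures shown without stereochemistry refer to stereoisomer mixtures.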

[10] = test system: IL-2-FL/Gaussia Luciferase; assay: Dox Induced IL2-FL-Gluc Assay; type: cell-based; settings: for IC50: 24 hr Dox induction, 293FRT/TO cells, mean, read-out: 24 hr Dox Inducible IL2FLGluc 293FRT/TO: Mean IC50; for 24 hr Dox Inducible IL2FLGluc 293FRT/TO: IL2/PD1: ratio of IL2FLGluc IC50 to PD1ssGluc IC50, '<=>' given where both are I.A.
How it was run: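 Doxycycline induces an IL-2(1-153)–Gaussia luciferase fusion in a stable Flp-In 293 T-REx line. Compound exposure runs alongside induction at 37° C.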

| Compound | IC50 [1] | Liver Microsome Stability (Multiple Species): Human - % Remaining after 30 min w/NADPH [2] | IC50 [3] | IC50 [4] | Liver Microsome Stability (Multiple Species): Monkey - % Remaining after 30 min w/NADPH [5] | Liver Microsome Stability (Multiple Species): Mouse - % Remaining after 30 min w/NADPH [6] | Liver Microsome Stability (Multiple Species): Rat - % Remaining after 30 min w/NADPH [7] | EC50 [8] | EC50 [9] | IC50 [10] | 24 hr Dox Inducible TNFaFLGluc 293FRT/TO: TNF/PD1 [4] | 24 hr Dox Inducible IL2FLGluc 293FRT/TO: IL2/PD1 [10] |
| --- | --- | --- | --- | --- | --- | --- | --- | --- | --- | --- | --- | --- |
| O=C(Nc1nc(/C=C/c2ncoc2C2CCCCC2)cs1)c1cccn1CC1CCOCC1 [Compound D4, (E)-N-(4-(2-(5-cyclohexyloxazol-4-yl)vinyl)thiazol-2-yl)-1-((tetrahydro-2H-pyran-4-yl)methyl)-1H-pyrrole-2-carboxamide] | 10.6 µM | 5.39% | 1.04 µM | > 25 µM | 1.35% | 29.8% | 1.86% | > 25 µM | > 25 µM | > 25 µM | >24.1 | >24 |
| O=C(Nc1nc(/C=C/c2cn(C3CCCCC3)cn2)cs1)c1cccn1CC1CCOCC1 [Compound D5, (E)-N-(4-(2-(1-cyclohexyl-1H-imidazol-4-yl)vinyl)thiazol-2-yl)-1-((tetrahydro-2H-pyran-4-yl)methyl)-1H-pyrrole-2-carboxamide] | 21.4 µM | 0.18% | 0.776 µM | > 25 µM | 0.17% | 0.54% | 0.16% | > 24.7 µM | 18.9 µM | 13.5 µM | >32.2 | 17 |
| CC(C)c1ccc(/C=C/c2csc(NC(=O)c3cccn3CC3CCOCC3)n2)nc1 [Compound D6, (E)-N-(4-(2-(5-isopropylpyridin-2-yl)vinyl)thiazol-2-yl)-1-((tetrahydro-2H-pyran-4-yl)methyl)-1H-pyrrole-2-carboxamide] | 6.2 µM | 0.03% | 0.595 µM | > 25 µM | 0.04% | 0.09% | 0.06% | 12.3 µM | 8.68 µM | > 25 µM | >42.0 | >42 |
| CC(C)n1cnc(/C=C/c2csc(NC(=O)c3cccn3CC3CCOCC3)n2)c1 [Compound D7, (E)-N-(4-(2-(1-isopropyl-1H-imidazol-4-yl)vinyl)thiazol-2-yl)-1-((tetrahydro-2H-pyran-4-yl)methyl)-1H-pyrrole-2-carboxamide] | > 25 µM | 0.04% | 2.83 µM | > 25 µM | 0.07% | 0.56% | 2.55% | > 25 µM | > 25 µM | > 25 µM | >8.84 | >8.8 |
| Cc1ccnc(/C=C/c2csc(NC(=O)c3cccn3Cc3ccncc3)n2)c1 [Compound E1, (E)-N-(4-(2-(4-methylpyridin-2-yl)vinyl)thiazol-2-yl)-1-(pyridin-4-ylmethyl)-1H-pyrrole-2-carboxamide] | 4.13 µM | 0.57% | 0.154 µM | > 25 µM | 0.53% | 0.33% | 0.33% | > 25 µM | 23.9 µM | 22.1 µM | >163 | 140 |

Compounds with a lower IC50 [1], results first:

| IC50 [1] | Liver Microsome Stability (Multiple Species): Human - % Remaining after 30 min w/NADPH [2] | IC50 [3] | IC50 [4] | Liver Microsome Stability (Multiple Species): Monkey - % Remaining after 30 min w/NADPH [5] | Liver Microsome Stability (Multiple Species): Mouse - % Remaining after 30 min w/NADPH [6] | Liver Microsome Stability (Multiple Species): Rat - % Remaining after 30 min w/NADPH [7] | EC50 [8] | EC50 [9] | IC50 [10] | Compound | 24 hr Dox Inducible TNFaFLGluc 293FRT/TO: TNF/PD1 [4] | 24 hr Dox Inducible IL2FLGluc 293FRT/TO: IL2/PD1 [10] |
| --- | --- | --- | --- | --- | --- | --- | --- | --- | --- | --- | --- | --- |
| 1 µM | 75.8% | 1.08 µM | > 25 µM | 52.2% | 50.6% | 52.6% | > 25 µM | > 25 µM | 1.35 µM | O=C(Nc1nc([C@H]2CCCN2c2ccccc2)cs1)c1cccn1Cc1cccc(Cl)c1 [Compound C122, (R)-1-(3-chlorobenzyl)-N-(4-(1-phenylpyrrolidin-2-yl)thiazol-2-yl)-1H-pyrrole-2-carboxamide] | >23.3 | 1.3 |
| 0.62 µM | 58.5% | 0.377 µM | 8.55 µM | 3.11% | 23.6% | 6.16% | > 25 µM | > 25 µM | 0.776 µM | O=C(Nc1nc([C@H]2CCCN2c2ccccc2)cs1)c1cccn1CC1CCC(F)(F)C1 (stereo partly drawn) [Compound C123, 1-((3,3-difluorocyclopentyl)methyl)-N-(4-((R)-1-phenylpyrrolidin-2-yl)thiazol-2-yl)-1H-pyrrole-2-carboxamide] | 22.7 | 2.1 |
| 1.5 µM | 5.79% | 0.397 µM | 6.09 µM | 0.23% | 2.76% | 0.39% | > 25 µM | > 23.9 µM | > 13.5 µM | O=C(Nc1nc(/C=C/c2ncc(F)cc2F)cs1)c1cccn1CC1CCOCC1 [Compound D2, (E)-N-(4-(2-(3,5-difluoropyridin-2-yl)vinyl)thiazol-2-yl)-1-((tetrahydro-2H-pyran-4-yl)methyl)-1H-pyrrole-2-carboxamide] | 15.3 | >34 |
| 2 µM | 0.24% | 0.734 µM | > 25 µM | 0.09% | 0.46% | 0.26% | > 17.8 µM | 10.2 µM | 6.66 µM | Cc1ccc(/C=C/c2csc(NC(=O)c3cccn3CC3CCOCC3)n2)nc1F [Compound D3, (E)-N-(4-(2-(6-fluoro-5-methylpyridin-2-yl)vinyl)thiazol-2-yl)-1-((tetrahydro-2H-pyran-4-yl)methyl)-1H-pyrrole-2-carboxamide] | >34.1 | 9.1 |
